Measured values published in PubChem BioAssay AID2060897 (Molecular Pharmacology Branch, DTP, NCI, 2025).

System: 966289-007-R4-J1-PDC complex spheroid viability
Test: Anticancer human tumor 966289-007-R4-J1-PDC patient-derived pancreatic adenocarcinoma cell line growth inhibition [RAS]
Settings: for IC50: curve of first compound; for viability, T/C: stronger effect = lower value
How it was run: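 Multi-cell-type spheroids: tumor cells plus HUVEC endothelial cells and mesenchymal stem cells. RAS-pathway inhibitors were combined with targeted agents, each dosed in half-log steps down from clinical Cmax, or from 10 microM when Cmax was unknown.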

[1] = second compound 0.000949 µM, first compound 0.0316 µM
[2] = second compound 0.000949 µM, first compound 0.1 µM
[3] = second compound 0.003 µM, first compound 0.0316 µM
[4] = second compound 0.003 µM, first compound 0.1 µM
[5] = second compound 0.00949 µM, first compound 0.0316 µM
[6] = second compound 0.00949 µM, first compound 0.1 µM
[7] = second compound 0.03 µM, first compound 0.0316 µM
[8] = second compound 0.03 µM, first compound 0.1 µM
[9] = second compound 0.0949 µM, first compound 0.0316 µM
[10] = second compound 0.0949 µM, first compound 0.1 µM
[11] = second compound 0.3 µM, first compound 0.0316 µM
[12] = second compound 0.3 µM, first compound 0.1 µM
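Further: spheroids exposed to agents for one week before readout.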
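Wherever viability, T/C is given: percent viability relative to DMSO vehicle control wells as 100%.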

## CC(C)n1nc(-c2ccc3oc(N)nc3c2)c2c(N)ncnc21 + CCn1c(-c2cccnc2C(C)OC)c2c3cc(ccc31)N1CCOC(CC(NC(=O)C(C(C)C)N(C)C(=O)C3(F)CCN(C(=O)C#CC(C)(C)N(C)C)CC3)C(=O)N3CCCC(N3)C(=O)OCC(C)(C)C2)C1
Second compound 0.000949 µM
  IC50: 24.8 nM
Second compound 0.003 µM
  IC50: 29.8 nM
Second compound 0.00949 µM
  IC50: 28.6 nM
Second compound 0.03 µM
  IC50: 31.7 nM
Second compound 0.0949 µM
  IC50: 29.8 nM
Second compound 0.3 µM
  IC50: 24.6 nM
Second compound 0.000949 µM, first compound 0.000316 µM
  viability, T/C: 101%
Second compound 0.000949 µM, first compound 0.001 µM
  viability, T/C: 88.1%
Second compound 0.000949 µM, first compound 0.00316 µM
  viability, T/C: 133%
Second compound 0.000949 µM, first compound 0.01 µM
  viability, T/C: 73.4%
[1]
  viability, T/C: 45.9%
[2]
  viability, T/C: 14.3%
Second compound 0.003 µM, first compound 0.000316 µM
  viability, T/C: 82.1%
Second compound 0.003 µM, first compound 0.001 µM
  viability, T/C: 102%
Second compound 0.003 µM, first compound 0.00316 µM
  viability, T/C: 116%
Second compound 0.003 µM, first compound 0.01 µM
  viability, T/C: 75.9%
[3]
  viability, T/C: 50.8%
[4]
  viability, T/C: 15.4%
Second compound 0.00949 µM, first compound 0.000316 µM
  viability, T/C: 67.1%
Second compound 0.00949 µM, first compound 0.001 µM
  viability, T/C: 111%
Second compound 0.00949 µM, first compound 0.00316 µM
  viability, T/C: 95.8%
Second compound 0.00949 µM, first compound 0.01 µM
  viability, T/C: 90.2%
[5]
  viability, T/C: 46.1%
[6]
  viability, T/C: 20.3%
Second compound 0.03 µM, first compound 0.000316 µM
  viability, T/C: 56.9%
Second compound 0.03 µM, first compound 0.001 µM
  viability, T/C: 96.6%
Second compound 0.03 µM, first compound 0.00316 µM
  viability, T/C: 111%
Second compound 0.03 µM, first compound 0.01 µM
  viability, T/C: 91.8%
[7]
  viability, T/C: 50.1%
[8]
  viability, T/C: 15%
Second compound 0.0949 µM, first compound 0.000316 µM
  viability, T/C: 58.4%
Second compound 0.0949 µM, first compound 0.001 µM
  viability, T/C: 96%
Second compound 0.0949 µM, first compound 0.00316 µM
  viability, T/C: 106%
Second compound 0.0949 µM, first compound 0.01 µM
  viability, T/C: 81.3%
[9]
  viability, T/C: 48.4%
[10]
  viability, T/C: 18.2%
Second compound 0.3 µM, first compound 0.000316 µM
  viability, T/C: 115%
Second compound 0.3 µM, first compound 0.001 µM
  viability, T/C: 96.7%
Second compound 0.3 µM, first compound 0.00316 µM
  viability, T/C: 84%
Second compound 0.3 µM, first compound 0.01 µM
  viability, T/C: 89.7%
[11]
  viability, T/C: 38.6%
[12]
  viability, T/C: 16.4%

## CC1(O)CCCC1n1c(=O)c(C(F)F)cc2cnc(NC3CCN(S(C)(=O)=O)CC3)nc21 (stereo unspecified) + CCn1c(-c2cc(N3CCN(C)CC3)cnc2C(C)OC)c2c3cc(ccc31)-c1csc(n1)CC(NC(=O)C1CC1C)C(=O)N1CCCC(N1)C(=O)OCC(C)(C)C2
Second compound 0.000949 µM
  IC50: 169 nM
Second compound 0.003 µM
  IC50: 120 nM
Second compound 0.00949 µM
  IC50: 108 nM
Second compound 0.03 µM
  IC50: 92.8 nM
Second compound 0.0949 µM
  IC50: 96 nM
Second compound 0.3 µM
  IC50: 139 nM
[1]
  viability, T/C: 148%
[2]
  viability, T/C: 63.6%
Second compound 0.000949 µM, first compound 0.316 µM
  viability, T/C: 28.7%
Second compound 0.000949 µM, first compound 1 µM
  viability, T/C: 29.1%
Second compound 0.000949 µM, first compound 3.16 µM
  viability, T/C: 26.8%
Second compound 0.000949 µM, first compound 10 µM
  viability, T/C: 2.64%
[3]
  viability, T/C: 125%
[4]
  viability, T/C: 51.6%
Second compound 0.003 µM, first compound 0.316 µM
  viability, T/C: 27.8%
Second compound 0.003 µM, first compound 1 µM
  viability, T/C: 24.4%
Second compound 0.003 µM, first compound 3.16 µM
  viability, T/C: 24.8%
Second compound 0.003 µM, first compound 10 µM
  viability, T/C: 3.3%
[5]
  viability, T/C: 98.4%
[6]
  viability, T/C: 52.7%
Second compound 0.00949 µM, first compound 0.316 µM
  viability, T/C: 22.4%
Second compound 0.00949 µM, first compound 1 µM
  viability, T/C: 25.9%
Second compound 0.00949 µM, first compound 3.16 µM
  viability, T/C: 26%
Second compound 0.00949 µM, first compound 10 µM
  viability, T/C: 3.14%
[7]
  viability, T/C: 85%
[8]
  viability, T/C: 48.6%
Second compound 0.03 µM, first compound 0.316 µM
  viability, T/C: 21.9%
Second compound 0.03 µM, first compound 1 µM
  viability, T/C: 23.7%
Second compound 0.03 µM, first compound 3.16 µM
  viability, T/C: 25.1%
Second compound 0.03 µM, first compound 10 µM
  viability, T/C: 3%
[9]
  viability, T/C: 84.5%
[10]
  viability, T/C: 47.4%
Second compound 0.0949 µM, first compound 0.316 µM
  viability, T/C: 25.4%
Second compound 0.0949 µM, first compound 1 µM
  viability, T/C: 27.1%
Second compound 0.0949 µM, first compound 3.16 µM
  viability, T/C: 26.6%
Second compound 0.0949 µM, first compound 10 µM
  viability, T/C: 2.94%
[11]
  viability, T/C: 107%
[12]
  viability, T/C: 55.9%
Second compound 0.3 µM, first compound 0.316 µM
  viability, T/C: 28.7%
Second compound 0.3 µM, first compound 1 µM
  viability, T/C: 25.8%
Second compound 0.3 µM, first compound 3.16 µM
  viability, T/C: 24.9%
Second compound 0.3 µM, first compound 10 µM
  viability, T/C: 3.18%

## CC(Nc1ccc2c(c1)OCCn1cc(N3C(=O)OCC3C(F)F)nc1-2)C(N)=O (stereo unspecified) + C#Cc1c(F)ccc2cc(O)cc(-c3ncc4c(N5CC6CCC(C5)N6)nc(OCC56CCCN5CC(F)C6)nc4c3F)c12
Second compound 0.0316 µM
  IC50: > 10000 nM
Second compound 0.1 µM
  IC50: > 10000 nM
Second compound 0.316 µM
  IC50: > 10000 nM
Second compound 1 µM
  IC50: > 10000 nM
Second compound 3.16 µM
  IC50: > 10000 nM
Second compound 10 µM
  IC50: > 10000 nM
Second compound 0.0316 µM, first compound 0.0316 µM
  viability, T/C: 108%
Second compound 0.0316 µM, first compound 0.1 µM
  viability, T/C: 106%
Second compound 0.0316 µM, first compound 0.316 µM
  viability, T/C: 100%
Second compound 0.0316 µM, first compound 1 µM
  viability, T/C: 95.5%
Second compound 0.0316 µM, first compound 3.16 µM
  viability, T/C: 107%
Second compound 0.0316 µM, first compound 10 µM
  viability, T/C: 86.8%
Second compound 0.1 µM, first compound 0.0316 µM
  viability, T/C: 104%
Second compound 0.1 µM, first compound 0.1 µM
  viability, T/C: 110%
Second compound 0.1 µM, first compound 0.316 µM
  viability, T/C: 101%
Second compound 0.1 µM, first compound 1 µM
  viability, T/C: 112%
Second compound 0.1 µM, first compound 3.16 µM
  viability, T/C: 111%
Second compound 0.1 µM, first compound 10 µM
  viability, T/C: 86.9%
Second compound 0.316 µM, first compound 0.0316 µM
  viability, T/C: 110%
Second compound 0.316 µM, first compound 0.1 µM
  viability, T/C: 102%
Second compound 0.316 µM, first compound 0.316 µM
  viability, T/C: 91.6%
Second compound 0.316 µM, first compound 1 µM
  viability, T/C: 95.3%
Second compound 0.316 µM, first compound 3.16 µM
  viability, T/C: 94.8%
Second compound 0.316 µM, first compound 10 µM
  viability, T/C: 77.3%
Second compound 1 µM, first compound 0.0316 µM
  viability, T/C: 109%
Second compound 1 µM, first compound 0.1 µM
  viability, T/C: 109%
Second compound 1 µM, first compound 0.316 µM
  viability, T/C: 121%
Second compound 1 µM, first compound 1 µM
  viability, T/C: 113%
Second compound 1 µM, first compound 3.16 µM
  viability, T/C: 115%
Second compound 1 µM, first compound 10 µM
  viability, T/C: 81.2%
Second compound 3.16 µM, first compound 0.0316 µM
  viability, T/C: 104%
Second compound 3.16 µM, first compound 0.1 µM
  viability, T/C: 95%
Second compound 3.16 µM, first compound 0.316 µM
  viability, T/C: 115%
Second compound 3.16 µM, first compound 1 µM
  viability, T/C: 91.6%
Second compound 3.16 µM, first compound 3.16 µM
  viability, T/C: 97%
Second compound 3.16 µM, first compound 10 µM
  viability, T/C: 83.1%
Second compound 10 µM, first compound 0.0316 µM
  viability, T/C: 98.9%
Second compound 10 µM, first compound 0.1 µM
  viability, T/C: 113%
Second compound 10 µM, first compound 0.316 µM
  viability, T/C: 119%
Second compound 10 µM, first compound 1 µM
  viability, T/C: 104%
Second compound 10 µM, first compound 3.16 µM
  viability, T/C: 95.9%
Second compound 10 µM, first compound 10 µM
  viability, T/C: 90.7%
